What was measured:
[1] = biological target: Bifunctional 3'-5' exonuclease/ATP-dependent helicase WRN (Homo sapiens, UniProt Q14191); experiment: ADP-Glo Kinase Assay
Procedure: ATPase activity was measured using the ADP-Glo Kinase Assay following the manufacturers recommended protocol.

[2] = biological target: T1, Bifunctional 3'-5' exonuclease/ATP-dependent helicase WRN [480-1251] (UniProt Q14191); experiment: Biochemical Activity Assays
T1 construct: 480-1251
T1 sequence (Q14191 480-1251): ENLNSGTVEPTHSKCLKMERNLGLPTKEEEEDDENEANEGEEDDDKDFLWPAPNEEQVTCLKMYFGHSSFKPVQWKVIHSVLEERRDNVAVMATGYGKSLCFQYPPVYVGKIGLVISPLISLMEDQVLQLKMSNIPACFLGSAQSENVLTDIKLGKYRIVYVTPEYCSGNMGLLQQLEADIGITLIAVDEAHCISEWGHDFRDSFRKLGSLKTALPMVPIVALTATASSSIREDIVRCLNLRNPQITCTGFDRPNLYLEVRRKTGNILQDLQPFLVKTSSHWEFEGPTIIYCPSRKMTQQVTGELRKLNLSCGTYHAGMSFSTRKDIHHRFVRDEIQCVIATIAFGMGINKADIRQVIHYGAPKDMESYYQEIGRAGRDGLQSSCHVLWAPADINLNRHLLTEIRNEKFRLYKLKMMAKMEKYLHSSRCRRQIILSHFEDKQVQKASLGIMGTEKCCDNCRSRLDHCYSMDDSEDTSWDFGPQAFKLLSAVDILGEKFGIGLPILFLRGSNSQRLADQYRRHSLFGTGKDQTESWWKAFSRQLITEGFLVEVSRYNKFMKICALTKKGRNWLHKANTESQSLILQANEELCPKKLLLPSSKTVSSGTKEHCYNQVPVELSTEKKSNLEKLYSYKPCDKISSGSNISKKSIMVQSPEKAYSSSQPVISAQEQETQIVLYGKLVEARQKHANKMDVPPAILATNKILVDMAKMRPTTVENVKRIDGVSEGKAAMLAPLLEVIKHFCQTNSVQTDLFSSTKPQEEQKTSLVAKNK

Sequence of Bifunctional 3'-5' exonuclease/ATP-dependent helicase WRN (Q14191 whole entry): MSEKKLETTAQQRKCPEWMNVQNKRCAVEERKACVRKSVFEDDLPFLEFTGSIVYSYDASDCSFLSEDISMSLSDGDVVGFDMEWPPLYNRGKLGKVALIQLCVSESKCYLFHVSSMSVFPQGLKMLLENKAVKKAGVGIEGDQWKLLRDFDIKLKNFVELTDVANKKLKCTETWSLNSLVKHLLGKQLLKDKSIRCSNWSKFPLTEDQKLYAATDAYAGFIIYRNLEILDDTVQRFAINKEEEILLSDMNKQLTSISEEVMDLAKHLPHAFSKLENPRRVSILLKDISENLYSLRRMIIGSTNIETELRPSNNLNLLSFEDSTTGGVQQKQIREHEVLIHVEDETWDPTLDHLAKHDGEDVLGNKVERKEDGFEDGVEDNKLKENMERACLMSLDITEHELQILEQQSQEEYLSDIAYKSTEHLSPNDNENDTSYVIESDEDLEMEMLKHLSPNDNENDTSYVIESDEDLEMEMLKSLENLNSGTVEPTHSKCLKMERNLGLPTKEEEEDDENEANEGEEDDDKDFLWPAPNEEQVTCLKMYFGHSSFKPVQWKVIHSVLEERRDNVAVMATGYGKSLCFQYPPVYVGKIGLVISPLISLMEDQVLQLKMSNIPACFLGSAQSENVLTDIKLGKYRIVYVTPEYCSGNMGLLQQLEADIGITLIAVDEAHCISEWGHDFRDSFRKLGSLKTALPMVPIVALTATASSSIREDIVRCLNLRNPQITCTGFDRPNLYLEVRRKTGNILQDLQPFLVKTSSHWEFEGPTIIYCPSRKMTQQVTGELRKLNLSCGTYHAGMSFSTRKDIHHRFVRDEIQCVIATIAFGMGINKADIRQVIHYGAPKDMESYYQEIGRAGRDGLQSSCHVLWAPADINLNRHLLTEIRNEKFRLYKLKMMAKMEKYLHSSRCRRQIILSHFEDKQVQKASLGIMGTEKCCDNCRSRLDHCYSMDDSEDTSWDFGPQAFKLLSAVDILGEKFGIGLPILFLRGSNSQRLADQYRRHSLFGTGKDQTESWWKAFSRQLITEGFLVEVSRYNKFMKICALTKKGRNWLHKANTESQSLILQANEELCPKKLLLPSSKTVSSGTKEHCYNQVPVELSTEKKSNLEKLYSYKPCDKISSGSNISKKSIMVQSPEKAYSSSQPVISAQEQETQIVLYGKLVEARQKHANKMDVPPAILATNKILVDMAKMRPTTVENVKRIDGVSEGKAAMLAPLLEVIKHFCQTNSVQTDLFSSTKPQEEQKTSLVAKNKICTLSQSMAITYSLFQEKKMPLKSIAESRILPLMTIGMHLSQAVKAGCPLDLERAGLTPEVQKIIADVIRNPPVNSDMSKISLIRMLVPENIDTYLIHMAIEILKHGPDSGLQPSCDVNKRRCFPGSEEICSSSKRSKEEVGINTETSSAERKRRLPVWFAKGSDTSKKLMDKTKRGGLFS

| Structure (SMILES) | IC50 [1] [µM] | IC50 [2] [µM] |
| --- | --- | --- |
| CCc1c(N2CCCN(C(=O)c3ncnc(C)c3O)CC2)c(=O)n2nc(C3=CCOCC3)nc2n1CC(=O)Nc1ccc(C(F)(F)F)cc1Cl [WO2025049746, Example 340] | 0.166 | 0.093 |
| CCc1c(N2CCN(C(=O)c3ccccc3NS(C)(=O)=O)CC2)c(=O)n2nc(C3=CCOCC3)nc2n1CC(=O)Nc1ccc(C(F)(F)F)cc1Cl [WO2025049746, Example 38] | 0.0708 | 0.0603 |
| CCc1c(N2CCN(C(=O)c3ncnc(C)c3O)CC2)c(=O)n2nc(-c3cccc4c3OC(F)(F)O4)nc2n1CC(=O)Nc1ccc(C(F)(F)F)cc1Cl [WO2025049746, Example 232] | 0.077 | 0.067 |
| CCc1c(N2CCN(C(=O)c3ncnc(C)c3O)CC2)c(=O)n2nc(-c3ccc4c(c3)CCO4)nc2n1CC(=O)Nc1c(Cl)cc(C(F)(F)F)c2c1CC2 [WO2025049746, Example 383] | 0.094 | 0.074 |
| CCc1c(N2CCN(C(=O)c3ncnc(C)c3O)CC2)c(=O)n2nc(-c3cc4c(cc3F)O[C@H](C)C4)nc2n1CC(=O)Nc1ccc(C(F)(F)F)cc1Cl [WO2025049746, Example 250] | 0.022 | 0.02 |
| CCc1c(N2CCN(C(=O)c3ncnc(C)c3O)CC2)c(=O)n2nc(-c3ccc4c(c3)COC4)nc2n1CC(=O)Nc1ccc(C2(C(F)(F)F)CC2)cc1Cl [WO2025049746, Example 420] | 0.1 | 0.065 |
| CCc1c(N2CCN(C(=O)c3ncnc(C)c3O)CC2)c(=O)n2nc(-c3ccc4c(c3)CCOC4)nc2n1CC(=O)Nc1ccc(C(F)(F)F)cc1Cl [WO2025049746, Example 3] | 0.0412 | 0.0344 |
| CCc1c(N2CCN(C(=O)c3ncnc(C)c3O)CC2)c(=O)n2nc(C3=CCOCC3)nc2n1CC(=O)NC12CCC(C(F)(F)F)(CC1)CC2 [WO2025049746, Example 349] | 1.95 | 0.994 |
| CCc1c(N2CCN(C(=O)c3ncnc(C)c3O)CC2)c(=O)n2nc(-c3ccc4c(c3)CCO[C@@H]4C)nc2n1CC(=O)Nc1ccc(C(F)(F)F)cc1Cl [WO2025049746, Example 228] | 0.032 | 0.028 |
| CCc1c(N2CCN(C(=O)c3ncnc(C)c3O)CC2)c(=O)n2nc(-c3cccc4c3CCCO4)nc2n1CC(=O)Nc1ccc(C(F)(F)F)cc1Cl [WO2025049746, Example 159] | 0.231 | 0.082 |
| CCc1c(N2CCN(C(=O)c3ncnc(C)c3O)CC2)c(=O)n2nc(-c3cc(F)c4c(c3)COC4(C)C)nc2n1CC(=O)Nc1ccc(C(F)(F)F)cc1Cl [WO2025049746, Example 212] | 0.086 | 0.073 |
| CCc1c(N2CCN(C(=O)c3nc4c(cc3O)CCOC4)CC2)c(=O)n2nc(-c3ccc4c(c3)COC4)nc2n1CC(=O)Nc1ccc(C(F)(F)F)cc1Cl [WO2025049746, Example 441] | 0.068 | 0.057 |
| CCc1c(N2CCN(C(=O)c3ncnc(C)c3O)CC2)c(=O)n2nc(-c3ccc4nccnc4c3)nc2n1CC(=O)Nc1ccc(C(F)(F)F)cc1Cl [WO2025049746, Example 280] | 0.028 | 0.031 |
| CCc1c(N2CCN(C(=O)c3cccc[n+]3[O-])CC2)c(=O)n2nc(C3=CCOCC3)nc2n1CC(=O)Nc1ccc(C(F)(F)F)cc1Cl [WO2025049746, Example 35] | 0.13 | 0.0684 |
| CCc1c(N2CCN(C(=O)c3ccccc3NS(C)(=O)=O)CC2)c(=O)n2nc(N(C)C)nc2n1CC(=O)Nc1ccc(C(F)(F)F)c2c1CC2 [WO2025049746, Example 106] | 0.414 | 0.276 |
| CCc1c(N2CCN(C(=O)c3ncnc(C)c3O)CC2)c(=O)n2nc(-c3ccc4nc(C)ccc4c3)nc2n1CC(=O)Nc1ccc(C(F)(F)F)cc1Cl [WO2025049746, Example 323] | 0.026 | 0.028 |
| CCc1c(N2CCN(C(=O)c3ncnc(C)c3O)CC2)c(=O)n2nc(-c3ccc4nn(C(C)C)cc4c3)nc2n1CC(=O)Nc1ccc(C(F)(F)F)cc1Cl [WO2025049746, Example 262] | 0.03 | 0.031 |
| CCc1c(N2CCN(C(=O)c3ncnc(C)c3O)CC2)c(=O)n2nc(-c3ccc4n[nH]cc4c3)nc2n1CC(=O)Nc1ccc(C(F)(F)F)cc1Cl [WO2025049746, Example 258] | 0.016 | 0.015 |
| CCc1c(N2CCN(C(=O)c3ncnc(C)c3O)CC2)c(=O)n2nc(N(C)C)nc2n1CC(=O)Nc1ccc(C(F)(F)F)cc1C [WO2025049746, Example 77] | 0.0621 | 0.0443 |

More lines, in order of falling IC50 [1], values ahead:

| IC50 [1] [µM] | IC50 [2] [µM] | Structure (SMILES) |
| --- | --- | --- |
| 6.94 | 6.91 | CCc1c(N2CCN(C(=O)c3ncnc(C)c3O)CC2)c(=O)n2c(C)c(-c3ccc4c(c3)COC4)nc2n1CC(=O)Nc1ccc(C(F)(F)F)cc1Cl [WO2025049746, Example 451] |
| 4.82 | 5.2 | CCc1c(N2CCN(C(=O)c3ncnc(C)c3O)CC2)c(=O)n2nc(C3=CCOCC3)nc2n1CC(=O)NC1CC2(C1)CC(F)(F)C2 [WO2025049746, Example 357] |
| 1.48 | 1.11 | CCc1c(N2CCN(C(=O)c3ncnc(C)c3O)CC2)c(=O)n2nc(C3=CCOCC3)nc2n1CC(=O)NC12CC(C)(C1)C2(F)F [WO2025049746, Example 371] |
| 0.13 | 0.0467 | CCc1c(N2CCN(C(=O)c3cccc4c3nnn4C)CC2)c(=O)n2nc(C3=CCOCC3)nc2n1CC(=O)Nc1ccc(C(F)(F)F)cc1Cl [WO2025049746, Example 49] |
| 0.108 | 0.103 | CCc1c(N2CCN(C(=O)c3cc(N4CCN(C)CC4)nc(C)c3O)CC2)c(=O)n2nc(-c3ccc4c(c3)COC4)nc2n1CC(=O)Nc1ccc(C(F)(F)F)cc1Cl [WO2025049746, Example 450] |
| 0.095 | 0.076 | CCc1c(N2CCN(C(=O)c3ncnc(C)c3O)CC2)c(=O)n2nc(-c3ccn4nccc4c3)nc2n1CC(=O)Nc1ccc(C(F)(F)F)cc1Cl [WO2025049746, Example 176] |
| 0.079 | 0.056 | CCc1c(N2CCN(C(=O)c3ncnc(C)c3O)CC2)c(=O)n2nc(-c3cc4c(cc3C)COC4)nc2n1CC(=O)Nc1ccc(C(F)(F)F)cc1Cl [WO2025049746, Example 203] |
| 0.074 | 0.098 | CCc1c(N2CCN(C(=O)c3ncnc(C)c3O)CC2)c(=O)n2nc(-c3ccc4c(c3)CC[C@H]4OC(F)F)nc2n1CC(=O)Nc1ccc(C(F)(F)F)cc1Cl [WO2025049746, Example 226] |
| 0.0705 | 0.0848 | CCc1c(N2CCN(C(=O)c3nc4c(cc3O)CCOC4)CC2)c(=O)n2nc(-c3ccc4c(c3)COC4(C)C)nc2n1CC(=O)Nc1ccc(C(F)(F)F)cc1Cl [WO2025049746, Example 463] |
| 0.068 | 0.058 | CCc1c(N2CCN(C(=O)c3ncnc(C)c3O)CC2)c(=O)n2nc(-c3cc4n(n3)CCCC4)nc2n1CC(=O)Nc1ccc(C(F)(F)F)cc1Cl [WO2025049746, Example 184] |
| 0.059 | 0.045 | CCc1c(N2CCN(C(=O)c3ncnc(C)c3O)CC2)c(=O)n2nc(N(C)C)nc2n1C(F)(F)C(=O)Nc1ccc(C(F)(F)F)cc1Cl [WO2025049746, Example 401] |
| 0.053 | 0.044 | CCc1c(N2CCN(C(=O)c3ncnc(C)c3O)CC2)c(=O)n2nc(-c3ccc4c(c3)CO[C@@H]4C)nc2n1CC(=O)Nc1ccc(C(F)(F)F)cc1Cl [WO2025049746, Example 191] |
| 0.052 | 0.045 | CCc1c(N2CCN(C(=O)c3ncnc(C)c3O)[C@H]3CC[C@H]32)c(=O)n2nc(-c3ccc4c(c3)COC4(C)C)nc2n1CC(=O)Nc1ccc(C(F)(F)F)cc1Cl [WO2025049746, Example 460] |
| 0.045 | 0.032 | CCc1c(N2CCN(C(=O)c3ncnc(C)c3O)CC2)c(=O)n2nc(N3CCC3)nc2n1CC(=O)Nc1ccc(C(F)(F)F)c2c1CC2 [WO2025049746, Example 377] |
| 0.039 | 0.05 | CCc1c(N2CCN(C(=O)c3ncnc(C)c3O)C[C@@H]2C)c(=O)n2nc(-c3ccc4c(c3)COC4(C)C)nc2n1CC(=O)Nc1ccc(C(F)(F)F)cc1Cl [WO2025049746, Example 453] |
| 0.038 | 0.03 | CCc1c(N2CCN(C(=O)c3ncnc(C)c3O)CC2)c(=O)n2nc(-c3ccc4c(c3)[C@@H](C)OC4)nc2n1CC(=O)Nc1ccc(C(F)(F)F)cc1Cl [WO2025049746, Example 190] |
| 0.037 | 0.029 | CCc1c(N2CCN(C(=O)c3ncnc(N4CC(F)(F)C4)c3O)CC2)c(=O)n2nc(-c3ccc4c(c3)COC4)nc2n1CC(=O)Nc1ccc(C(F)(F)F)cc1Cl [WO2025049746, Example 412] |
| 0.035 | 0.029 | CCc1c(N2CCN(C(=O)c3ncnc(C)c3O)CC2)c(=O)n2nc(-c3ccc4c(c3)COC4)nc2n1CC(=O)Nc1c(Cl)cc(C(F)(F)F)c2c1CC2 [WO2025049746, Example 384] |
| 0.032 | 0.033 | CCc1c(N2CCN(C(=O)c3ncnc(C)c3O)CC2)c(=O)n2nc(-c3ccc4c(c3)nnn4C)nc2n1CC(=O)Nc1ccc(C(F)(F)F)cc1Cl [WO2025049746, Example 314] |
| 0.031 | 0.032 | CCc1c(N2CCN(C(=O)c3ncnc(C)c3O)CC2)c(=O)n2nc(-c3ccc4c(c3F)CCOC4)nc2n1CC(=O)Nc1ccc(C(F)(F)F)cc1Cl [WO2025049746, Example 217] |
| 0.027 | 0.028 | CCc1c(N2CCN(C(=O)c3ncnc(C)c3O)CC2)c(=O)n2nc(-c3ccn4ncc(C)c4c3)nc2n1CC(=O)Nc1ccc(C(F)(F)F)cc1Cl [WO2025049746, Example 272] |
| 0.0215 | 0.0213 | CCc1c(N2CCN(C(=O)c3nc4n(c(=O)c3O)CCOC4)CC2)c(=O)n2nc(-c3ccc4c(c3)OCO4)nc2n1CC(=O)Nc1ccc(C(F)(F)F)cc1Cl [WO2025049746, Example 86] |
| 0.0201 | 0.0163 | CCc1c(N2CCN(C(=O)c3nccc4nc[nH]c34)CC2)c(=O)n2nc(N3C[C@H]4COC[C@H]4C3)nc2n1CC(=O)Nc1ccc(C(F)(F)F)cc1Cl [WO2025049746, Example 95] |
| 0.02 | 0.026 | CCc1c(N2CCN(C(=O)c3ncnc(C)c3O)CC2)c(=O)n2nc(-c3ccc(NC(=O)NC)cc3)nc2n1CC(=O)Nc1ccc(C(F)(F)F)cc1Cl [WO2025049746, Example 331] |

Reference: BindingDB's records for patent WO2025049746 (Eikon Therapeutics, 2025)
